In patent US20250171462A1 (NICO Therapeutics, Inc., priority 2022, published 2025):
Read-outs that look alike come from different tables or passages of the source.

Target: T1, full-length SARM1 (FL-SARM1) (Homo sapiens, UniProt Q6SZW1)
T1 sequence (Q6SZW1 28-724): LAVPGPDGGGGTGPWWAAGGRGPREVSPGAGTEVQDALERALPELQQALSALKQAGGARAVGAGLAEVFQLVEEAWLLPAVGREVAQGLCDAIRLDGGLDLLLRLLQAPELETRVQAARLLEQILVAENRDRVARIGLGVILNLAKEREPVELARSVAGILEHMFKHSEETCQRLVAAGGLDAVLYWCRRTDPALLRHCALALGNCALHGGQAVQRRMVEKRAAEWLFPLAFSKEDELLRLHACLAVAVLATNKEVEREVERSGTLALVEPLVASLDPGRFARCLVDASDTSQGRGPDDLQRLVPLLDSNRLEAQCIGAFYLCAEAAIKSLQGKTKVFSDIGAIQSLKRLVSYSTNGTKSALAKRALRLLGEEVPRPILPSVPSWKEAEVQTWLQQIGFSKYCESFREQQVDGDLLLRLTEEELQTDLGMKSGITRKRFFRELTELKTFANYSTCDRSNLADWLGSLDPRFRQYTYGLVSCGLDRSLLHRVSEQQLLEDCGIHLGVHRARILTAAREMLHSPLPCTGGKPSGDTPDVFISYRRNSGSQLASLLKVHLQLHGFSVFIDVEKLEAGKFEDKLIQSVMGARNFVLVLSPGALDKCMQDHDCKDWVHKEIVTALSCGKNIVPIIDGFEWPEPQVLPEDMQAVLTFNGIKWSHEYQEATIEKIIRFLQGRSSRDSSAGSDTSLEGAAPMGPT
Test: FL-SARM1 cellular lysate assay (NAD/NADH-Glo detection of remaining NAD+, NMN-activated)

[1] = Activity (IC50 class), 11 point curve
[2] = Activity (μM) (IC50), 11 point curve
[3] = read-out: Activity (IC50 class), 11 point curve

Method: Preparation of full-length SARM1 (FL-SARM1) lysate: HEK293T cells (ATCC: CRL-3216) were grown on 150 mm TC-treated dishes to 80-90% confluency in complete DMEM (DMEM (Thermo Fisher: 11965175) supplemented with 10% HI—FBS (VWR: 10802-772), 1× Pen/Strep (Thermo Fisher: 15140122), 1×NEAA (Thermo Fisher: 1140050), 1× glutamax (Thermo Fisher: 35050061), and 1 mM sodium pyruvate (Thermo Fisher: 11360070)) at 37° C. and 5% CO2. One hour prior to transfection, the media was replaced with fresh, 37° C. complete DMEM (20 mL per one 150 mm dish) supplemented with additional 10 mM glucose (Alfa Aesar AAJ60067EQE). Per one 150 mm dish, 30 μg FL-SARM1 (SEQ. ID. 1; cloned in-house) plasmid was dissolved in 1 mL DMEM at ambient temperature and were mixed by inverting the tube 8-10 times. 90 μL of GenJet™ in vitro DNA transfection reagent (Ver2) was dissolved in 1 mL DMEM at ambient temperature and were mixed by inverting the tube 8-10 times. The plasmid and transfection agent solutions were combined, mixed by 8-10 inversions and incubated for 10 minutes at ambient temperature. 2 mL of this transfection mixture was added to each dish containing HEK293T cells as prepared above followed by a gentle mixing of 4-5 horizontal rotations. The dishes were incubated at 37° C. and 5% CO2 for 24 h. The dishes were removed from the incubator, the medium was aspirated and the cells were scraped off using cell scrapers in ice-cold 1×PBS (5 mL/dish, Thermo Fisher Scientific 10010023). The collected cells were centrifuged at 300 g for 5 minutes at 4° C. The supernatant was aspirated and the pellet was frozen at −80° C. until needed. The cell pellet from 30 dishes was dissolved in 30 mL 1×PBS supplemented with 4 tablets of Complete, Mini EDTA-free protease inhibitor cocktail at 4° C. This mixture was sonicated on ice for 10 minutes at 50% amplitude with a 1 second on/1 second off interval using a Model 120 sonicator (Thermo Fisher Scientific, FB120110). The lysate was centrifuged at 16000 g for 10 minutes at 4° C.
To a white 384-well Proxiplate (PerkinElmer, PE-6008280) was added 50 nL/well of a DMSO solution containing test compounds followed by 7.5 μL/well of a 0.067 mg/mL solution of SARMi cellular lysate in reaction buffer (DPBS containing CHAPSO (0.1%) and fatty acid free BSA (0.032%)). The plate was centrifuged for 1 minute at 1000 RPM and then placed in an incubator at 23° C. for 15 minutes. To the wells were added 2.5 μL/well of a solution containing 40 M NAD^+ and 4 mM nicotinamide mononucleotide (NMN) in reaction buffer. The plate was centrifuged for 1 min at 1000 RPM, the plate was sealed and placed in an incubator at 23° C. for 3.5 hours before adding 3.5 μL/well of NAD/NADH-Glo™ solution (preparation as described by Promega using the extended detection protocol). The plate was centrifuged for 1 minute at 1000 RPM and then incubated at 23° C. for 20 minutes. 1 μL/well of a 3.625 mM solution of menadione in DMSO was added and the plate was centrifuged for 1 minute at 1000 RPM. Relative light units (RLU) were recorded using an Envision plate reader at a height of 6.5 mm.
IC50 values were calculated from an 11 point curve using ½ log dilutions using a four-parameter logistic regression curve fit.

SMILES | IC50 [1] | IC50 [2] | IC50 [3]
Cc1ccc(NC(=O)C2(O)CCCC2)cc1-c1ccccn1 [Example 115, 1-hydroxy-N-(4-methyl-3-pyridin-2-ylphenyl)cyclopentane-1-carboxamide] | > 10 µM | 36 µM | 
Cc1ccc(NC(=O)[C@H]2CC[C@@H](C)CN2c2ncccn2)cc1-c1ncccn1 (single isomer, unassigned) [Example 206, cis-5-methyl-N-(4-methyl-3-(pyrimidin-2-yl)phenyl)-1-(pyrimidin-2-yl)piperidine-2-carboxamide] |  | 0.7 µM | 0.0001 to 1 µM
Cc1ccc(NC(=O)C(C)C(F)(F)F)cc1-c1ncccn1 (racemic) [Example 169, 3,3,3-trifluoro-2-methyl-N-(4-methyl-3-pyrimidin-2-ylphenyl)propanamide] | > 10 µM | 21 µM | 
Cc1cc(F)c(NC(=O)N2C3CCCC2C3)cc1-c1ccccn1 [Example 43, N-(2-fluoro-4-methyl-5-(pyridin-2-yl)phenyl)-6-azabicyclo[3.1.1]heptane-6-carboxamide] |  | 0.2 µM | 0.0001 to 1 µM
Cc1c(Br)cc(NC(=O)N2C3CCCC2C3)cc1-c1ccccn1 [Example 78, N-(3-bromo-4-methyl-5-(pyridin-2-yl)phenyl)-6-azabicyclo[3.1.1]heptane-6-carboxamide] |  | 0.7 µM | 0.0001 to 1 µM
Cc1ccc(NC(=O)[C@@H]2C[C@@H]3[C@H](C2)C3(F)F)cc1-c1cccnn1 [Example 176, trans-6,6-difluoro-N-(4-methyl-3-(pyridazin-3-yl)phenyl)bicyclo[3.1.0]hexane-3-carboxamide] | > 10 µM | 16 µM | 
Cc1ccc(NC(=O)N2C3CCCC2C3)cc1-c1cnccn1 [Example 53, N-(4-methyl-3-(pyrazin-2-yl)phenyl)-6-azabicyclo[3.1.1]heptane-6-carboxamide] |  | 0.8 µM | 0.0001 to 1 µM
Cc1ccc(NC(=O)N2CCCC3CC32)cc1-c1ccccn1 (stereo not shown) [Example 99, N-(4-methyl-3-pyridin-2-ylphenyl)-2-azabicyclo[4.1.0]heptane-2-carboxamide] | > 10 µM | 18 µM | 
Cc1ccc(NC(=O)N2CCCC2c2ccnn2C)cc1-c1ccccn1 (racemic) [Example 89, 2-(2-methylpyrazol-3-yl)-N-(4-methyl-3-pyridin-2-ylphenyl)pyrrolidine-1-carboxamide] | > 10 µM | 12 µM | 
Cc1ccc(NC(=O)[C@H]2CC[C@@H](C)N2c2ccc(C#N)cn2)cc1-c1ncc(F)cn1 [Example 285, (2R,5R)-1-(5-cyanopyridin-2-yl)-N-[3-(5-fluoropyrimidin-2-yl)-4-methylphenyl]-5-methylpyrrolidine-2-carboxamide] | 1 to 10 µM | 2.2 µM | 
CSc1ncc(N2[C@@H](C(=O)Nc3ccc(C)c(-c4ncc(F)cn4)c3)C[C@H]3C[C@H]32)nn1 [Example 172, (1R,3R,5R)—N-(3-(5-fluoropyrimidin-2-yl)-4-methylphenyl)-2-(3-(methylthio)-1,2,4-triazin-6-yl)-2-azabicyclo[3.1.0]hexane-3-carboxamide] | 1 to 10 µM | 6.2 µM | 
Cc1cc(C(F)(F)F)c(NC(=O)N2[C@@H]3C[C@@H](C)C[C@H]2C3)cc1-c1cccnn1 [Example 244, cis-3-methyl-N-[4-methyl-5-pyridazin-3-yl-2-(trifluoromethyl)phenyl]-6-azabicyclo[3.1.1]heptane-6-carboxamide] | > 10 µM | 16 µM | 
Cc1ccc(NC(=O)CC2CCC2)cc1-c1ccccn1 [Example 168, 2-cyclobutyl-N-(4-methyl-3-pyridin-2-ylphenyl)acetamide] | 1 to 10 µM | 1.3 µM | 
Cc1ccc(NC(=O)C2CCC[C@@H](C)N2c2ccccn2)cc1-c1ncc(F)cn1 (mixture of isomers) [Example 258, cis-N-(3-(5-fluoropyrimidin-2-yl)-4-methylphenyl)-6-methyl-1-(pyridin-2-yl)piperidine-2-carboxamide] | 1 to 10 µM | 2.4 µM | 
Cc1ccc(NC(=O)C2C3CCC2CC3)cc1-c1cccnn1 (stereo not shown) [Example 103, N-(4-methyl-3-pyridazin-3-ylphenyl)bicyclo[2.2.1]heptane-7-carboxamide] |  | 0.5 µM | 0.0001 to 1 µM
Cc1cnc(-c2cc(NC(=O)N3[C@@H]4C[C@@H](C)C[C@H]3C4)c(F)cc2Cl)nn1 [Example 320] |  | 0.6 µM | 0.0001 to 1 µM

SMILES | IC50 [1] | IC50 [2] | IC50 [3]
Cc1ccc(NC(=O)C(C)C2CCC2)cc1-c1cccnn1 (racemic) [Example 297, 2-cyclobutyl-N-(4-methyl-3-pyridazin-3-ylphenyl)propanamide] | 1 to 10 µM | 6.5 µM | 
Cc1ccc(NC(=O)N2[C@@H]3C[C@@H](C)C[C@H]2C3)cc1-c1cc(OC(F)F)cnn1 [Example 235, cis-N-[3-[5-(difluoromethoxy)pyridazin-3-yl]-4-methylphenyl]-3-methyl-6-azabicyclo[3.1.1]heptane-6-carboxamide] |  | 0.06 µM | 0.0001 to 1 µM
Cc1ccc(NC(=O)N2C3CCC2c2cnccc23)cc1-c1ccccn1 (stereo not shown) [Example 26, N-(4-methyl-3-(pyridin-2-yl)phenyl)-5,6,7,8-tetrahydro-5,8-epiminoisoquinoline-9-carboxamide] | 1 to 10 µM | 1.3 µM | 
Cc1ccc(NC(=O)[C@@H]2C[C@H](C(F)(F)F)CN2c2ncccn2)cc1-c1cccnn1 [Example 174, (2S,4S)—N-(4-methyl-3-(pyridazin-3-yl)phenyl)-1-(pyrimidin-2-yl)-4-(trifluoromethyl)pyrrolidine-2-carboxamide] | > 10 µM | 25 µM | 
COCC12CC(C)CC(C1)N2C(=O)Nc1cc(-c2ncccn2)c(C)cc1F (single isomer, unassigned) [Example 200, trans-N-(2-fluoro-4-methyl-5-pyrimidin-2-ylphenyl)-1-(methoxymethyl)-3-methyl-6-azabicyclo[3.1.1]heptane-6-carboxamide] |  | 0.1 µM | 0.0001 to 1 µM
C[C@@H]1C[C@@H]2C[C@H](C1)N2C(=O)Nc1cc(-c2cccnn2)c(C(F)(F)F)cc1F [Example 245, cis-N-[2-fluoro-5-pyridazin-3-yl-4-(trifluoromethyl)phenyl]-3-methyl-6-azabicyclo[3.1.1]heptane-6-carboxamide] |  | 0.2 µM | 0.0001 to 1 µM
Cc1ccc(NC(=O)N2C3CCCC2C3)cc1-c1nccc(C#N)n1 [Example 67, N-(3-(4-cyanopyrimidin-2-yl)-4-methyl-phenyl)-6-azabicyclo[3.1.1]heptane-6-carboxamide] |  | 0.6 µM | 0.0001 to 1 µM
COc1cnnc(-c2cc(NC(=O)N3C4CCCC3C4)c(F)cc2C)c1 [Example 249, N-[2-fluoro-5-(5-methoxypyridazin-3-yl)-4-methylphenyl]-6-azabicyclo[3.1.1]heptane-6-carboxamide] |  | 0.9 µM | 0.0001 to 1 µM
Cc1ccc(NC(=O)[C@@H]2C[C@@H]2C(F)(F)F)cc1-c1ccccn1 (racemic) [Example 124, cis-N-(4-methyl-3-pyridin-2-ylphenyl)-2-(trifluoromethyl)cyclopropane-1-carboxamide] | 1 to 10 µM | 3.1 µM | 
Cc1cc(C)c(-c2ccccn2)cc1NC(=O)N1C2CCCC1C2 [Example 76, N-(2,4-dimethyl-5-(pyridin-2-yl)phenyl)-6-azabicyclo[3.1.1]heptane-6-carboxamide] | 1 to 10 µM | 6.8 µM | 
Cc1ccc(NC(=O)N2C3C[C@@H](C#N)C[C@@H]2C3)cc1-c1ccccn1 [Example 75, trans-3-cyano-N-(4-methyl-3-(pyridin-2-yl)phenyl)-6-azabicyclo[3.1.1]heptane-6-carboxamide] |  | 0.4 µM | 0.0001 to 1 µM
Cc1ccc(NC(=O)N2C3CCCC2C3)cc1-c1cccc(C#N)n1 [Example 44, N-(3-(6-cyanopyridin-2-yl)-4-methylphenyl)-6-azabicyclo[3.1.1]heptane-6-carboxamide] |  | 0.1 µM | 0.0001 to 1 µM
C[C@@H]1CC2C[C@H](C1)N2C(=O)Nc1ccc(CF)c(-c2ncc(F)cn2)c1 [Example 179, cis-N-(4-(fluoromethyl)-3-(5-fluoropyrimidin-2-yl)phenyl)-3-methyl-6-azabicyclo[3.1.1]heptane-6-carboxamide] |  | 0.03 µM | 0.0001 to 1 µM
CCOC(C)[C@@]12CC(C[C@@H](C)C1)N2C(=O)Nc1ccc(C)c(-c2ncc(F)cn2)c1 (single isomer, unassigned) [Example 187, cis-1-(1-ethoxyethyl)-N-(3-(5-fluoropyrimidin-2-yl)-4-methylphenyl)-3-methyl-6-azabicyclo[3.1.1]heptane-6-carboxamide] |  | 0.2 µM | 0.0001 to 1 µM
Cc1ccc(NC(=O)C2CC3(CC3)C2)cc1-c1ccccn1 [Example 119, N-(4-methyl-3-pyridin-2-ylphenyl)spiro[2.3]hexane-5-carboxamide] | 1 to 10 µM | 1.9 µM | 
Cc1ccc(NC(=O)[C@@H]2C[C@@H]2c2ccccn2)cc1-c1cccnn1 [Example 291, (1R,2S)-N-(4-methyl-3-pyridazin-3-ylphenyl)-2-pyridin-2-ylcyclopropane-1-carboxamide] | > 10 µM | 16 µM | 
